Test results published in patent publication US8609711B2, “Crystalline N-{(1S)-2-amino-1-[(3-fluorophenyl)methyl]ethyl}-5-chloro-4-(4-chloro-1-methyl-1H-pyrazol-5-yl)-2-thiophenecarboxamic hydrochloride” (GlaxoSmithKline LLC, priority 2009, dated 2013).
“Also recorded” adds a separate entry of the source.

Assay: Hygroscopicity, VTI instrument SGA 100
Conditions: for weight increase (moisture): 25 °C; for hygroscopicity (in words): hydrochloride
Excerpt: There were 24 Relative Humidity steps used. The Relative Humidity at each step is as follows.

Cl.Cn1ncc(Cl)c1-c1cc(C(=O)N[C@H](CN)Cc2cccc(F)c2)sc1Cl [Example 3]
weight increase (moisture) (drying at 60 °C, 19 relative humidity steps between 0 and 90, max equilibrium time 300 min): more than 18 % w/w | hygroscopicity (in words): hygroscopic; also recorded: high level of hygroscopicity

Cl.Cn1ncc(Cl)c1-c1cc(C(=O)N[C@H](CN)Cc2cccc(F)c2)sc1Cl [Compound A]
weight increase (moisture) (no drying, 24 relative humidity steps between 5 and 90, max equilibrium time 240 min): less than 1 % w/w | hygroscopicity (in words): non-hygroscopic; also recorded: low level of hygroscopicity
